# Reference: US20260021122A1, “CANNABINOIDS AND USES THEREOF IN TREATMENT OF A DISEASE” (TECHNION RESEARCH & DEVELOPMENT FOUNDATION LIMITED, priority 2022, published 2026)
# Test system: B16F10 tumors
# Assay: Mouse tumor model: B16F10 cells transplanted subcutaneously, tumor volume and weight
# Assay type: in vivo, mice
# Details: CBG 2.5 mg/kg or 3704 3.75 mg/kg intraperitoneally
# Experimental: All procedures involving animals were conducted in accordance with the standards approved by the Technion Animal Care and Use Ethics Committee and the studies adhered to the Technion Code for Experimentation on Animals. To induce tumors, B16F10 cells grown to a confluency of ˜75% were resuspended to a concentration of 1×10^6 cells in 200 ul sterile PBS and transplanted subcutaneously into the right flank of 8-10-week-old female WT C57B6/L mice (Envigo, 16.8±0.78 g). After either 24 hours or 3 days, mice were randomly divided into groups and treated as indicated with either a vehicle of Cannabis extract solvent (18:1:1 ratio of DDW+0.9% NaCl, Sigma, Cat #S7653; Cremophor® EL, Cat #238470; Ethanol, Sigma, #Cat 111727), CAN (100 mg/kg), synthetic CBG (2.5 mg/kg) or 3704 (3.75 mg/kg) for 5 days, then 2 days off and again for 4 days. Tumor volume was measured from day 10 to 14 (endpoint) using a vernier caliper and calculated according to the formula […] and all tumors were weighed at the endpoint of the experiments with an analytical scale.
smiles,measurement,setting,value
"CCCCCc1cc(O)c(C/C=C(\C)CCC=C(C)C)c(O)c1 [CBG, cannabigerol]",Tumor weight on day 14 compared to vehicle,nine injections,weighed significantly less
same,Tumor volume compared to the vehicle-treated group,"nine injections from day 3, measured daily day 10 to 14",significantly lower in the CBG-treated group already at day 12
